Assay results published in PMC11444284, “Chloroplastic ascorbate modifies plant metabolism and may act as a metabolite signal regardless of oxidative stress” (Plant Physiology, 2024).

Legend:
SBPase [1] = target: T1, SBPase (Arabidopsis thaliana, UniProt P46283); assay: malachite green phosphate release assay; type: biochemical; settings: read-out: % inhibition at 10 mM
T1 construct: gene At3g55800
T1 sequence (P46283 75-393): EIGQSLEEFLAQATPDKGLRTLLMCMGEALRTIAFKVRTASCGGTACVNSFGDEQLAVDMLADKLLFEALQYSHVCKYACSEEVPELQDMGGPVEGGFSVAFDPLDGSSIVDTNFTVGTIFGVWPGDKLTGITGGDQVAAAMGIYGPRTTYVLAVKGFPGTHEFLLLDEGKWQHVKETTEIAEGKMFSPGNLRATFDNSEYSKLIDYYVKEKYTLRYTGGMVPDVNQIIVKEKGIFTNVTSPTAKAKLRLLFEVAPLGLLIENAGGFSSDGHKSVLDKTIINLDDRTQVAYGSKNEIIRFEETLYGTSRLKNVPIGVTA

SBPase [2] = target: T1, SBPase; assay: malachite green phosphate release assay; type: biochemical; settings: 500 µM; alternative substrate; 15 mM MgCl2, 10 mM DTT; thioredoxin F1-activated; room temperature activation

Row | inhibition at 10000 µM (SBPase [1]) | SMILES | malachite green phosphate release assay (SBPase [2])
1 | ~57% | O=C1O[C@H]([C@@H](O)CO)C(O)=C1O [Ascorbate] | –
2 | – | O=P(O)(O)OC[C@H]1OC(O)(COP(=O)(O)O)[C@@H](O)[C@@H]1O (some centres unmarked) [fructose-1-6-bisphosphate] | conversion rate of the alternative SBPase substrate fructose-1-6-bisphosphate to fructose-6-phosphate
